Measurements published in patent US20260138958A1, “SUBSTITUTED N-PHENYLURACILS AND SALTS THEREOF, AND USE THEREOF AS HERBICIDAL ACTIVE SUBSTANCES” (Bayer Aktiengesellschaft, priority 2022, published 2026).

Legend:
Assay type in all cases: in vivo
Viola tricolor (VIOTR) = assay: Post-emergence herbicidal action, greenhouse pot test
Procedure: (§1) Seeds of monocotyledonous and dicotyledonous weeds and crop plants were placed in sandy loam in plastic or wood-fibre pots, covered with soil and cultivated in a greenhouse under controlled growth conditions. 2 to 3 weeks after sowing, the test plants were treated at the one-leaf stage. The compounds of the invention, formulated in the form of wettable powders (WP) or as emulsion concentrates (EC), were then sprayed onto the green parts of the plants as aqueous suspension or emulsion with addition of 0.5% additive at a water application rate of 600 l/ha (converted). After the test plants had been kept in the greenhouse under optimum growth conditions for about 3 weeks, the activity of the preparations was rated visually in comparison to untreated controls. For example, 100% activity=the plants have died, 0% activity=like control plants.

[1] = tested on: Abutilon theophrasti (ABUTH); assay: as above
Procedure: as §1

[2] = tested on: Tripleurospermum inodorum (MATIN); assay: as above; settings: Tripleurospermum inodorum, 504 h, 20 g/ha, read-out: Post-emergence effect at 20 g/ha against MATIN in %
Procedure: as §1

[3] = tested on: Pharbitis purpurea (PHBPU); assay: as above; settings: Ipomoea purpurea, 504 h
Procedure: as §1

Lolium rigidum (LOLRI) = assay: as above
Procedure: as §1

[4] = tested on: Amaranthus retroflexus (AMARE); assay: as above; settings: Amaranthus retroflexus, 504 h
Procedure: as §1

Veronica persica (VERPE) = assay: as above
Procedure: as §1

Bassia scoparia (KCHSC) = assay: as above
Procedure: as §1

[5] = tested on: Polygonum convolvulus (POLCO); assay: as above; settings: Fallopia convolvulus, 504 h
Procedure: as §1

[6] = tested on: Echinochloa crus-galli (ECHCG); assay: as above
Procedure: as §1

Setaria viridis (SETVI) = assay: as above
Procedure: as §1

[7] = tested on: Digitaria sanguinalis (DIGSA); assay: as above
Procedure: as §1

[8] = tested on: Alopecurus myosuroides (ALOMY); assay: as above; settings: Alopecurus myosuroides, 504 h, 20 g/ha, read-out: Post-emergence effect at 20 g/ha against ALOMY in %
Procedure: as §1

[9] = tested on: Triticum aestivum (TRZAS); assay: Post-emergence crop plant compatibility, greenhouse pot test; settings: Triticum aestivum, in vivo
Procedure: as §1
The observed effects on selected crop plants are reported here in comparison to the untreated controls (values in %).

CC(OC(=O)COc1ccccc1Oc1cc(-n2c(=O)cc(C(F)(F)F)n(C)c2=O)c(F)cc1Cl)C1CC1 (stereo not shown) [I.7-2, 1-Cyclopropylethyl (2-{2-chloro-4-fluoro-5-[3-methyl-2,6-dioxo-4-(trifluoromethyl)-3,6-dihydropyrimidin-1(2H)-yl]phenoxy}phenoxy)acetate]
Post-emergence effect at 1.25 g/ha against VIOTR in % (Viola tricolor (VIOTR); 1.25 g/ha): 100% | Post-emergence effect at 5 g/ha against VIOTR in % (Viola tricolor (VIOTR); 5 g/ha): 100% | pest or weed control at 20 g/ha (Viola tricolor (VIOTR); Viola tricolor, 504 h, 20 g/ha, read-out: Post-emergence effect at 20 g/ha against VIOTR in %): 100% | Post-emergence effect at 1.25 g/ha against ABUTH in % ([1]; 1.25 g/ha): 80% | pest or weed control at 5 g/ha ([1]; Abutilon theophrasti, 504 h, 5 g/ha, read-out: Post-emergence effect at 5 g/ha against ABUTH in %): 100% | pest or weed control at 20 g/ha ([1]; Abutilon theophrasti, 504 h, 20 g/ha, read-out: Post-emergence effect at 20 g/ha against ABUTH in %): 100% | pest or weed control at 20 g/ha [2]: 100% | pest or weed control at 5 g/ha ([3]; 5 g/ha, read-out: Post-emergence effect at 5 g/ha against PHBPU in %): 100% | pest or weed control at 20 g/ha ([3]; 20 g/ha, read-out: Post-emergence effect at 20 g/ha against PHBPU in %): 100% | Post-emergence effect at 20 g/ha against LOLRI in % (Lolium rigidum (LOLRI)): 100% | pest or weed control at 1.25 g/ha ([4]; 1.25 g/ha, read-out: Post-emergence effect at 1.25 g/ha against AMARE in %): 100% | pest or weed control at 5 g/ha ([4]; 5 g/ha, read-out: Post-emergence effect at 5 g/ha against AMARE in %): 100% | pest or weed control at 20 g/ha ([4]; 20 g/ha, read-out: Post-emergence effect at 20 g/ha against AMARE in %): 100% | Post-emergence effect at 1.25 g/ha against VERPE in % (Veronica persica (VERPE); 1.25 g/ha): 100% | pest or weed control at 5 g/ha (Veronica persica (VERPE); Veronica persica, 504 h, 5 g/ha, read-out: Post-emergence effect at 5 g/ha against VERPE in %): 100% | pest or weed control at 20 g/ha (Veronica persica (VERPE); Veronica persica, 504 h, 20 g/ha, read-out: Post-emergence effect at 20 g/ha against VERPE in %): 100% | Post-emergence effect at 1.25 g/ha against KCHSC in % (Bassia scoparia (KCHSC); 1.25 g/ha): 100% | Post-emergence effect at 5 g/ha against KCHSC in % (Bassia scoparia (KCHSC); 5 g/ha): 100% | Post-emergence effect at 20 g/ha against KCHSC in % (Bassia scoparia (KCHSC); 20 g/ha): 100% | pest or weed control at 5 g/ha ([5]; 5 g/ha, read-out: Post-emergence effect at 5 g/ha against POLCO in %): 100% | pest or weed control at 20 g/ha ([5]; 20 g/ha, read-out: Post-emergence effect at 20 g/ha against POLCO in %): 100% | Post-emergence effect at 5 g/ha against ECHCG in % ([6]; 5 g/ha): 100% | pest or weed control at 20 g/ha ([6]; Echinochloa crus-galli, 504 h, 20 g/ha, read-out: Post-emergence effect at 20 g/ha against ECHCG in %): 100% | Post-emergence effect at 1.25 g/ha against SETVI in % (Setaria viridis (SETVI); 1.25 g/ha): 100% | pest or weed control at 5 g/ha (Setaria viridis (SETVI); Setaria viridis, 504 h, 5 g/ha, read-out: Post-emergence effect at 5 g/ha against SETVI in %): 100% | pest or weed control at 20 g/ha (Setaria viridis (SETVI); Setaria viridis, 504 h, 20 g/ha, read-out: Post-emergence effect at 20 g/ha against SETVI in %): 100% | Post-emergence effect at 1.25 g/ha against DIGSA in % ([7]; 1.25 g/ha): 100% | Post-emergence effect at 5 g/ha against DIGSA in % ([7]; 5 g/ha): 100% | Post-emergence effect at 20 g/ha against DIGSA in % ([7]; 20 g/ha): 100% | pest or weed control at 20 g/ha [8]: 80% | Post-emergence effect at 1.25 g/ha against TRZAS in % [9]: 10%
